# Experimental data from paper PMC8401465, “In Vitro Testing of Alternative Synthetic and Natural Antiparasitic Compounds against the Monogenean Sparicotyle chrysophrii” (Pathogens, 2021).
# Entries after “also recorded” stand apart in the source; their conditions may differ. Read-outs that look alike come from different tables or passages of the source.
# Tests used:
# [1] = test system: Vibrio anguillarum; assay: Bactericidal activity (MTT), Vibrio anguillarum; assay type: cell-based; conditions: for inhibition at 0.1 µM / inhibition at 1 µM / inhibition at 10 µM: Vibrio anguillarum, read-out: Bactericidal activity (%); for antibacterial activity against V. anguillarum: among the natural compounds
# Protocol: (§1) Two bacterial fish pathogens, Vibrio harveyi and V. anguillarum were used to test the bactericidal activity of the target compounds, being previously isolated and identified as described in [65]. Lab strains were maintained at −20 °C in Tryptone Soy Broth (TSB, Difco Laboratories, Inc., Detroit, MI, USA) supplemented with 1% (w/v) NaCl (TSB1) and 50% (v/v) glycerol. […] Bacteria in TSB medium were then cultured at the same temperature with continuous shaking (100 rpm) for 24 h. Exponentially grown bacteria were resuspended in sterile PBS and adjusted to the concentration of 10^8 colony forming units (cfu)/mL. Each target compound (20 μL; concentrations 0.1, 1, and 10 µM) was added (in triplicates) to the wells of a flat-bottom 96-well plate, except for the positive control that consisted of 0.5% DMSO in PBS. Aliquots of 20 μL of the previously cultured bacteria were added, and the plate was incubated for 5 h at 25 °C. […] The plate was then centrifuged (4500 rpm, 10 min) and the precipitate dissolved in 200 μL of DMSO. The solution (100 μL) from each well was transferred to another flat-bottom 96-well plate. The absorbance of the dissolved formazan was measured at 570 nm. Bactericidal activity was expressed as percentage of nonviable bacteria, calculated as the difference between absorbance of surviving bacteria compared to the absorbance of bacteria in positive controls (100%).
# [2] = test system: SAF-1 cells; assay: Viability of SAF-1 cell line (MTT assay); assay type: cell-based, Sparus aurata; conditions: for viability of SAF-1 cells compared to control: 0.1–10 µM, 24, 48, 72 h
# Protocol: Sparus aurata fibroblast cell line SAF-1 (ECACC n°00122301) was cultured in 25 cm^2 plastic flasks (Nunc, Darmstadt, Germany) in L-15 Leibowitz medium (Sigma, Haverhill, UK) supplemented with 10% fetal bovine serum (FBS), 2 mmol/L L-glutamine, 100 iu/mL penicillin, and […] streptomycin (all reagents from Sigma-Aldrich, Saint Louis, MO, USA).
# Cells were grown at 25 °C under an 85% humidity atmosphere. Cells at 80% of confluence were detached with trypsin solution (0.25% of trypsin in PBS, pH 7.2–7.4) and pelleted by centrifugation (1000 rpm, 10 min, 25 °C). The cell suspension in complete medium was dispensed in a 96-multiwell plate at a density of 8000 cells/well and incubated for 24 h before the exposure to the compounds.
# Cytotoxicity assay was performed in six replicates. Stock solutions were prepared by dissolving the compounds in dimethyl sulfoxide (DMSO), and then diluting in complete medium (final concentration of DMSO 0.1%) to obtain concentration of 0.1, 1, and 10 µM of target compounds.
# Cells were then incubated for 24, 48, and 72 h in three different plates at 25 °C. Control samples received the same volume of culture medium and DMSO 0.1%, although this concentration of solvent is considered non-toxic.
# The toxicity of the compounds was determined using the (3-(4,5-dimethylthiazol-2-yl)-2,5-diphenyltetrazolium bromide (MTT, Sigma-Aldrich) assay, according to [62], as reported in [61]. The results were expressed as viability percentage in respect to the controls (untreated cells).
# The MTT assay is based on the reduction in the yellow soluble tetrazolium salt (3-(4,5-dimethylthiazol-2-yl)-2,5-diphenyltetrazolium bromide) (MTT, Sigma-Aldrich, Saint Louis, Missouri, USA) into a blue, insoluble formazan produced by the mitochondrial succinate dehydrogenase. […] After 4 h of incubation, cells were washed again, and the formazan crystals solubilized with […] of DMSO. Plates were shaken (5 min, 100 rpm) in dark conditions and the optical densities (ODs) at 570 nm with background subtraction at 690 nm were determined in a microplate reader (Opsys MR™ Microplate Reader, USA). The percentage of viability was determined by formula:Viability (%) = (OD of the tested sample/OD of the control sample) × 100
# [3] = test system: Vibrio harveyi; assay: Bactericidal activity (MTT), Vibrio harveyi; assay type: cell-based; conditions: for inhibition at 0.1 µM / inhibition at 1 µM / inhibition at 10 µM: Vibrio harveyi, read-out: Bactericidal activity (%)
# Protocol: as §1
# [4] = test system: Sparicotyle chrysophrii adults; assay: microbe, parasite or virus in culture; conditions: Sparicotyle chrysophryii
# Protocol: Firstly, the adult monogeneans were exposed to a range of four concentrations of tested compounds encompassing the full dose–response range; each compound stock at 10 mM was serially diluted 10 (1 mM), 10^2 (0.1 mM), 10^3 (0.01 mM), and 10^4 (1 µM) times. […] Ten monogeneans per well (in triplicate) were added to 2 mL sterile seawater (SW) in 6-well plates, checked at the stereomicroscope for visible signs of mechanical damage, and exposed to selected concentrations in the dark at room temperature (Table 1). The number of live/dead parasites was recorded under the stereomicroscope at 1, 4, 12, and 24 h post-exposure. S. chrysophrii was considered to be alive if it performed any type of movement autonomously or 5 s after gentle probing with a dissection needle. Negative controls comprised the seawater with up to 0.5% of DMSO in total volume, the latter used as a solvent for each compound.
# [5] = test system: Sparicotyle chrysophrii adults; assay: microbe, parasite or virus in culture; conditions: for LC20 (95% CI), toxicity level for adult S. chrysophrii: 20% mortality; for LC20 (95% CI), toxicity level for adult S. chrysophrii / LC80 (95% CI), toxicity level for adult S. chrysophrii: 4 h post-exposure; for LC80 (95% CI), toxicity level for adult S. chrysophrii: 80% mortality; for LC50: Sparicotyle chrysophryii, 4 h, read-out: LC50 (95% CI), toxicity level for adult S. chrysophrii; for b (SE), slope of dose–response model / e (SE), midpoint of dose–response model: Weibull type 2, c = 0, d = 1, mortality at 4 h post-exposure
# Protocol: Subsequently, the monogeneans (n = 6, in triplicate) were exposed to a range of seven concentrations tailored according to each compound’s activity observed in preliminary tests. The range for each compound was scaled down to an appropriate order of magnitude so that each compound reached 100% mortality at 4 h post-exposure (Table 1).
# For the dose–response curve fitting, the drc package for R (v4.0.4) was used. An appropriate nonlinear regression model was selected between log-logistic and Weibull type models, based on the Akaike information criterion (AIC) and lack-of-fit test criteria through the use of mselect function. The best scoring model was Weibull type 2 model (asymmetrical) with lower and upper limits fixed to 0 and 1, respectively, as mortality in all assays reached 100%. […] Model parameters and estimated lethal doses (20%, 50%, and 80%) were calculated with standard errors and 95% confidence intervals, based on the delta method, respectively, and adjusted for simultaneous inference through multcomp package. Dose–response curves were visualised using ggplot2 library.
# [6] = test system: wild and drug-resistant Leishmania donovani amastigotes; set-up: method as in PMID 28400285; conditions: cited from earlier work
SMILES,"inhibition at 0.1 µM ([1]; 0.1 µM, 5 h at 25 °C) [%]","inhibition at 1 µM ([1]; 1 µM, 5 h at 25 °C) [%]","inhibition at 10 µM ([1]; 10 µM, 5 h at 25 °C) [%]",viability of SAF-1 cells compared to control [2],"inhibition at 0.1 µM ([3]; 0.1 µM, 5 h at 25 °C) [%]","inhibition at 1 µM ([3]; 1 µM, 5 h at 25 °C) [%]","inhibition at 10 µM ([3]; 10 µM, 5 h at 25 °C) [%]","LC20 (95% CI), toxicity level for adult S. chrysophrii [5]","LC80 (95% CI), toxicity level for adult S. chrysophrii [5]",LC50 [5] [µM],"b (SE), slope of dose–response model [5]","e (SE), midpoint of dose–response model [5]",potency / effect against V. anguillarum as judged in the discussion [1],antibacterial activity against V. anguillarum ([1]; p < 0.05),also measured
"CCCCCCc1ccc(O)cc1O [4-Hexylresorcinol, reference compound]",-121 ± 10.9,-76.1 ± 33.9,-55.5 ± 31.6,did not induce a significant reduction in viability,19.6 ± 31.5,34.7 ± 10.1,67.5 ± 14.1,–,–,–,–,–,–,–,"bactericidal activity against V. harveyi ([3]; synthetic compounds, at increased concentrations): significant bactericidal activity; mortality at 1000 µM ([4]; 1 h): 100%"
C[C@@H]1CC[C@H]2C(C)(C)[C@H]3C[C@@]12CC[C@@]3(C)O [Cedrol],-6.9 ± 3,24.1 ± 8,30.8 ± 6.4,–,-44.9 ± 7.7,-23.8 ± 6.9,-2.4 ± 26.9,0.09 (0.06–0.11) mM,0.14 (0.12–0.16) mM,110,3.98 (0.66),0.12 (0.01),effective only against V. anguillarum,strongest antibacterial activity,"times the L. donovani IC50 is lower than the LC50 observed for S. chrysophrii ([5]; IC50 1.5 μM (ref 33) against own LC50): approximately 73; reduction in sea bream fibroblasts' viability ([2]; 10 µM, 72 h of exposure): highest reduction in sea bream fibroblasts’ viability; also recorded: moderately toxic to the host cell line during long-term exposure to very high concentrations; fold increase of selectivity index (CC50/IC50) ([6]; incorporated and delivered within lipid nanocarrier, wild-type L. donovani): 2.1; IC50 ([6]; wild and drug-resistant L. donovani amastigotes infecting humans, read-out: inhibitory concentration (IC50)): 1.5 µM"
COc1cc(/C=C/C(=O)CC(=O)/C=C/c2ccc(O)c(OC)c2)ccc1O [Curcumin],9.5 ± 7.5,24.5 ± 14.6,34.9 ± 1.2,–,2.1 ± 15,7.6 ± 2.1,10.4 ± 4.5,0.14 (0.06–0.23) mM,0.36 (0.26–0.45) mM,240,2.14 (0.44),0.29 (0.03),potent anti-Vibrio anguillarum agent,strongest antibacterial activity,fold less toxic for the monogenean compared to cedrol ([5]; comparison with cedrol): 2; cytotoxicity in SAF-1 cells ([2]; 10 µM for 24 h): exerted significant cytotoxicity; potency / effect against V. harveyi as judged in the discussion [3]: ineffective against V. harveyi
"S=C=Nc1ccc(N=C=S)cc1 [Bitoscanate, reference compound]",–,–,–,did not induce a significant reduction in viability,–,–,–,–,–,–,–,–,–,–,"antimicrobial activity against V. anguillarum ([1]; 10 µM, p < 0.05): best antimicrobial activity; inhibition at 0.1 µM ([1]; 5 h): -10.8 ± 19.9%; inhibition at 1 µM ([1]; 5 h): 19.6 ± 3.7%; inhibition at 10 µM ([1]; 5 h): 30.5 ± 2%; inhibition at 0.1 µM ([3]; 5 h): -21.6 ± 6%; inhibition at 1 µM ([3]; 5 h): -0.088 ± 16.3%; inhibition at 10 µM ([3]; 5 h): 13.1 ± 5.1%; mortality at 1000 µM ([4]; 24 h): 100%"
